Tests used:
[1] = molecular target: T1, ABCB1 (Homo sapiens, UniProt P08183); assay: biochemical
[2] = molecular target: T1, ABCB1

T1 sequence (P08183 whole entry): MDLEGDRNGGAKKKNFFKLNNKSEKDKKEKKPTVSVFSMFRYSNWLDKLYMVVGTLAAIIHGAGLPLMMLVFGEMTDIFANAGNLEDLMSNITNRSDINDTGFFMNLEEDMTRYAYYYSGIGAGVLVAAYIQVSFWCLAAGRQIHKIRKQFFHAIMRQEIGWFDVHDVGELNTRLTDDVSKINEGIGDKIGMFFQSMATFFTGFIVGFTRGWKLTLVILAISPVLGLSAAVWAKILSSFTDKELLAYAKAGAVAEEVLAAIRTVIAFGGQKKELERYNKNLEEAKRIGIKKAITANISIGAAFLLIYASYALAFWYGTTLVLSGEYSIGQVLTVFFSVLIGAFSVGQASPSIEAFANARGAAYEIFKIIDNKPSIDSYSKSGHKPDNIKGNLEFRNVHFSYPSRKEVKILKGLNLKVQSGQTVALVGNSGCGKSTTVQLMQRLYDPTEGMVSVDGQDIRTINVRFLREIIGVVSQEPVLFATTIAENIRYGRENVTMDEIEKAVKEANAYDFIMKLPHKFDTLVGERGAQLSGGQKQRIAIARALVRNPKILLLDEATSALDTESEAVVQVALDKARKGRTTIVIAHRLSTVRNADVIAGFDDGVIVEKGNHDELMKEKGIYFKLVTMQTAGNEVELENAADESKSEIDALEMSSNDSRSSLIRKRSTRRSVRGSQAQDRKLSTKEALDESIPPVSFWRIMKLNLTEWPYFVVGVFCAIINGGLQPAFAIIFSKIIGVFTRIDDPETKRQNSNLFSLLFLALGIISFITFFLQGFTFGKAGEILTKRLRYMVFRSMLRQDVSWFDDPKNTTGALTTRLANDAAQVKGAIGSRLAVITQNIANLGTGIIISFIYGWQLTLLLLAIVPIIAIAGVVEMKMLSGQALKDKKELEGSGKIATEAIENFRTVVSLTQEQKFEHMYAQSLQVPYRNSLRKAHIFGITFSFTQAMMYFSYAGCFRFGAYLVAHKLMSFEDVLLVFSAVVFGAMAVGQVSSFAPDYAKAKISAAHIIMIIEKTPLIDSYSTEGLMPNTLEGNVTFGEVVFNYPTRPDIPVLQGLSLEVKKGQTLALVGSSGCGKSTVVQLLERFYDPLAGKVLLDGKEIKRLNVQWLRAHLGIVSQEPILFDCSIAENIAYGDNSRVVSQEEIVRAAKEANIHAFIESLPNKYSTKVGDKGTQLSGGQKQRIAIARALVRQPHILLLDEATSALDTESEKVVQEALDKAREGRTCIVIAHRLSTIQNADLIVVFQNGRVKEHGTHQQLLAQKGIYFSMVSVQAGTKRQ

| SMILES | EC50 [1] [nM] | [3H]-paclitaxel accumulation and efflux in KB-C2 versus parental KB-3-1 cells [2] |
| --- | --- | --- |
| COc1cc2c(cc1OC(C)C)[C@H](c1ccc(Cl)cc1)N(c1ccc(N(C)C[C@H]3CC[C@H](N4CCN(C)C(=O)C4)CC3)cc1)C(=O)C2 [NVP-CGM097] | 450 |  |
| CC(=O)O[C@H]1C(=O)[C@@]2(C)[C@H]([C@H](OC(=O)c3ccccc3)[C@]3(O)C[C@H](OC(=O)[C@H](O)[C@@H](NC(=O)c4ccccc4)c4ccccc4)C(C)=C1C3(C)C)[C@]1(OC(C)=O)CO[C@@H]1C[C@@H]2O [paclitaxel] |  | NVP-CGM097 can block the efflux activity of ABCB1-overexpressing cells, therefore, increasing intracellular paclitaxel accumulation |

From PMC7390918, “NVP-CGM097, an HDM2 Inhibitor, Antagonizes ATP-Binding Cassette Subfamily B Member 1-Mediated Drug Resistance” (Frontiers in Oncology, 2020)
